In patent publication US20200214324A1, “Masking Bitter Flavors” (Board of Supervisors of Louisiana State University and …, priority 2009, published 2020):
Where two headings read alike, the source gives them in different places.

Columns and labels:
[1] = taste of the mogroside itself and blocking of bitter tastes; format: in vivo
Text: In many (but not necessarily all) uses of the present invention, it is preferred to use levels of mogroside below the threshold at which the mogroside imparts a sweetening effect. […] Mogroside V is sweet. Mogroside III has been reported to be tasteless. […] If desired, it should be possible to use Mogroside III in higher concentration than Mogroside V to block bitter or other unwanted tastes, without imparting any sweetening effect.

[2] = has been reported; cited from earlier work
[3] = blind tasting of poached chicken liver and chicken gizzard puree; format: in vivo
Experimental: In initial experiments, Mogroside V was tested at varying levels from 100-500 ppm. […] Mogroside V was added to a chicken liver and chicken gizzard puree, and the puree was poached to an internal temperature of 74° C. A control puree with no mogroside was identically cooked. Six individuals tasted the samples blind and could easily differentiate them.

[4] = sodium reduction blends tested on red beans; format: in vivo
Experimental: (§1) These sodium reduction blends were tested with red beans, navy beans, crackers, and potato chips. Results are shown in Table III (in which “M” is an abbreviation for Mogroside V.)

[5] = sodium reduction blends tested on potato chips; format: in vivo
Experimental: as §1

[6] = sodium reduction blends tested on navy beans; format: in vivo
Experimental: as §1

[7] = sodium reduction blends tested on whole wheat crackers; format: in vivo
Experimental: as §1

[8] = sodium reduction blends tested on shredded wheat crackers; format: in vivo
Experimental: as §1

## C[C@H](CC[C@@H](O[C@@H]1O[C@H](CO[C@@H]2O[C@H](CO)[C@@H](O)[C@H](O)[C@H]2O)[C@@H](O)[C@H](O)[C@H]1O)C(C)(C)O)[C@H]1CC[C@@]2(C)[C@@H]3CC=C4[C@@H](CC[C@H](O[C@@H]5O[C@H](CO)[C@@H](O)[C@H](O)[C@H]5O)C4(C)C)[C@]3(C)[C@H](O)C[C@]12C [Mogroside III]
[1]; preliminary tests
  blocking of bitter tastes: effectively blocks bitter tastes
[2]
  taste of the compound itself: tasteless

## C[C@H](CC[C@@H](O[C@@H]1O[C@H](CO[C@@H]2O[C@H](CO)[C@@H](O)[C@H](O)[C@H]2O)[C@@H](O)[C@H](O)[C@H]1O[C@@H]1O[C@H](CO)[C@@H](O)[C@H](O)[C@H]1O)C(C)(C)O)[C@H]1CC[C@@]2(C)[C@@H]3CC=C4[C@@H](CC[C@H](O[C@@H]5O[C@H](CO[C@@H]6O[C@H](CO)[C@@H](O)[C@H](O)[C@H]6O)[C@@H](O)[C@H](O)[C@H]5O)C4(C)C)[C@]3(C)[C@H](O)C[C@]12C [Mogroside V]
[1]; in vivo
  taste of the compound itself: sweet
[3]; 150-250 ppm, puree poached to 74° C., control livery, organy, bloody
  taste description by six blind tasters: slightly sweet, “bologna-like,” and “bland.”
[3]; above about 250 ppm
  effect above the preferred range: a very sweet taste developed
[3]; below about 150 ppm
  effect below the preferred range: the effect was minimal
[3]; initial experiments, tested 100-500 ppm
  preferred levels of mogroside: 150-250 ppm
[3]; samples with mogroside vs control puree, six individuals
  preference of testers: All testers preferred the samples with mogroside
[3]; tested 100-500 ppm
  level preferred by the majority of testers: 200 ppm

## [Cl-].[Na+] [NaCl]
[4]
  Overall Taste: 6.79
  Saltiness: 6.63
[5]
  Overall Taste: 6.97
  Saltiness: 6.92
[6]
  Overall Taste: 6.17
  Saltiness: 6.13
[7]
  Overall Taste: 7.04
  Saltiness: 6.96
[8]
  Overall Taste: 6.04
  Saltiness: 6.04
